Laboratory results from patent publication US7141661B2, “Non-steroidal anti-inflammatory drug activated gene with anti-tumorigenic properties” (The United States of America as represented by the …, priority 2000, dated 2006).

Experiments:
Type in all cases: cell-based, human
[1] = system: NAG-1; experiment: Northern blot analysis of NAG-1 mRNA expression in HCT-116 cells; conditions: HCT-116, 100 μM INDO, 48 hr, no serum
[2] = system: NAG-1; experiment: Northern blot NAG-1 induction in U937 leukemia cells; conditions: INDO treatment, 24 hr
Method: NSAID-induced apoptosis is not restricted to colorectal cells, as NSAIDs can induce apoptosis in breast, lung, leukemia, and prostate cell lines. To test for the induction of NAG-1 by NSAIDs in different cell lines, A549 lung epithelial cells, MCF-7 mammary cells, PC-3 prostate cancer cells, and U937 leukemia cell lines were treated with several concentrations of INDO and aspirin. Then, as described above, Northern blot analysis was performed. […] Quiescent cells were grown for 24 hr in the presence of indicated NSAIDs. Total RNAs were isolated and subjected to Northern analysis using NAG-1 and β-actin as probes. The blots contained 10 μg of total RNA from INDO- or Aspirin (Asp)-treated cells with indicated doses. “V” indicates total RNAs from vehicle (0.2% DMSO) treated cells. The results shown are representative of those obtained in two experiments.

[3] = system: NAG-1; experiment: Western blot analysis of secreted NAG-1 protein from HCT-116 cells; conditions: HCT-116, 100 μM INDO, 36 and 48 hr, no serum
Method: The level of secreted NAG-1 was evaluated using Western blot analysis with anti-human-NAG-1 antibody (generously provided by Dr. Paralkar of Pfizer). HCT-116 cells were grown to 60–80% confluency in 10 cm plates followed by 48 hr treatment in the absence of serum with either NSAIDs or TGZ. The media were harvested and concentrated approximately 15-fold using Centriprep 10 concentrators (Amicon). Proteins (30 μg) were separated by 15% SDS-PAGE and transferred for 1 hr onto nitrocellulose membrane (Schleicher & Schuell). The blots were blocked for 1 hr with 5% skim milk in TBS/Tween 0.05%, and probed with anti-NAG-1 antibody (1 μg/ml in TBS-0.2%-Tween20) at […] overnight. After washing, the blots were treated with horseradish peroxidase-conjugated secondary antibody for 1 hr and washed several times. The signal was detected by enhanced chemiluminescence system (AMERSHAM) and autoradiography.
HCT-116 cells were treated with 100 μM INDO in the absence of serum for various times. In FIG. 1B, left panel. 10 μg of total RNA was loaded in each lane. Northern blotting was performed using the NAG-1 probe and re-probed with β-actin probe. The hybridization signals were quantitated using Scion Image software (Scion). Levels of the 1.3 kb NAG-1 transcript were normalized to the levels of β-actin transcripts and represented relative to 0 hr treatment. […] The signal was detected by ECL reagent (AMERSHAM).

[4] = system: NAG-1; experiment: Western analysis of NAG-1 in stably transfected HCT-116 cells; conditions: antisense HCT-116 cells, 100 μM, 48 hr
Description: HCT-116 cells were stably transfected with an expression vector containing the full-length NAG-1 coding region in the sense and antisense orientations. The sense cells expressed NAG-1 protein at a level that was 2.0–2.5 fold greater than the vector transfected cells, while the anti-sense cells expressed slightly lower NAG-1 levels compared to vector transfected cells. […] The full-length NAG-1 (sense strand and antisense strand) was cloned into the pCDNA3.1 expression vector and transfected into HCT-116 cells. Each cell was grown under G418 (500 μg/ml) for 2 weeks and treated with either vehicle or INDO (100 μM). After growing for 48 hr, the media was harvested, concentrated, and subjected to Western analysis. Thirty μg of total protein was loaded in each lane, and the arrow indicates the NAG-1 protein band.

[5] = system: HCT-116 cells; experiment: Apoptosis and cell cycle by PI staining / FACS in HCT-116 cells
Method: To determine whether NAG-1 gene expression is associated with NSAID-induced apoptosis or altered cell cycle kinetics, flow cytometric analysis of the distribution of cells at various stages of the cell cycle was performed. Apoptosis and cell cycle kinetics of INDO-treated HCT-116 cells were measured at different time points. HCT-116 cells were treated with INDO, stained with PI, and analyzed by flow cytometry. Seven thousand five hundred cells were examined by flow cytometry by gating on an area versus width dot plot to exclude cell debris and cell aggregates. Apoptosis is represented by the fold increase in sub-G1 population over 0 hr treatment.
The DNA content for NSAIDs, PPARγ ligand, and vehicle treated HCT-116 cells was determined by FACS. Cells were plated at a density of 4×10^5 cells/well in 2 ml of medium in 6 well plates, incubated for 16 h, and then treated with NSAIDs or TGZ in the presence of serum. After treatment, the cells were harvested, washed with PBS, fixed by the slow addition of cold 70% ethanol to a total of 1 ml, and stored overnight at 4° C. The fixed cells were pelleted, washed once with PBS, and stained in 1 ml of 20 μg/ml of propidium iodide (PI), 1 mg/ml RNase in PBS for 20 min. Seven thousand five hundred cells were examined by flow cytometry using Becton Dickinson FACSort equipped with CellQuest software, by gating on an area versus width dot plot to exclude cell debris and cell aggregates. Each cell cycle distribution was analyzed by the McCycle program using one cell cycle parameter. Apoptosis was measured based on the level of sub-diploid DNA contained in cells following treatment with NSAIDs or TGZ using CellQuest software.
Northern analysis was performed using NAG-1 and β-actin as probes. The data represent relative expression of NAG-1 mRNA over the control (1.0). Each NSAID was tested at 3 different concentrations and maximally effective concentration used for apoptosis determination. Apoptosis ratio by PI staining was measured by FACS. […] The data represent relative apoptosis ratio over vehicle treatment by PI staining methods. TACS™ Annexin V-FITC kit was also used to confirm apoptosis.

COc1ccc2c(c1)c(CC(=O)O)c(C)n2C(=O)c1ccc(Cl)cc1 [Indomethacin]
NAG-1 mRNA expression [1]: further increase | NAG-1 expression [2]: only a modest increase | NAG-1 protein expression [3]: marked increase | Expression of NAG-1 [4]: did not stimulate apoptosis or increase the expression of NAG-1 | Increase in apoptosis (sub-G1 population over 0 hr) ([5]; HCT-116, 36 hr exposure): ~3 fold | Apoptosis (PI Staining), relative apoptosis ratio over vehicle ([5]; HCT-116, 48 hr in presence of serum, maximally effective concentration, FACS): 2.9 ± 0.121 | Increase in apoptosis (sub-G1 population over 0 hr) ([5]; HCT-116, 60 hr exposure): 4.5 fold | Earliest time at which apoptosis was observed ([5]; HCT-116, presence of serum, TGZ 5 μM): 36 h | Time point at which G1 arrest was seen ([5]; HCT-116, TGZ 5 μM): 12 h
